Values of other authors as cited in article PMC12175978, “First-in-Human Serum Stability Studies of [^177Lu]Lu-AMTG: A Step Toward Improved GRPR-Targeted Radiopharmaceutical Therapy” (Journal of Nuclear Medicine, 2025).
Like-named read-outs stand apart in the source and are kept apart here.

in vivo serum stability in humans (in words) (human) | in vivo serum stability in humans (in words) (in vivo) | Substance
very stable | – | [^177Lu]Lu-PSMA-617
– | very stable | [^177Lu]Lu-DOTATATE
